Measurements from publication PMC9944328 (Nature Communications, 2023).
Like-named read-outs stand apart in the source and are kept apart here.

Legend:
Test in all cases: Bystander BRET endosomal trafficking (β-arrestin 1-Nluc, FYVE-mVenus), HEK293 (SSTR2 mutants);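 note: Read-out is the BRET ratio between Nluc-fused β-arrestin 1 and the early endosome marker FYVE-mVenus, measured after ligand addition with coelenterazine h as substrate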
[1] = biological target: SSTR2 mutants (Homo sapiens, UniProt P30874, I130A)
[2] = biological target: SSTR2 mutants (Homo sapiens, UniProt P30874, P220A)
[3] = biological target: SSTR2 mutants (Homo sapiens, UniProt P30874, R140A)
[4] = biological target: SSTR2 mutants (Homo sapiens, UniProt P30874, I284A); settings: for Bottom: best-fit value
[5] = tested on: SSTR2 mutants; settings: for Fold of WT: Bystander BRET EC50
[6] = biological target: SSTR2 mutants (Homo sapiens, UniProt P30874, W269A)
[7] = biological target: SSTR2 mutants (Homo sapiens, UniProt P30874, F265A)
[8] = biological target: SSTR2 mutants (Homo sapiens, UniProt P30874, K291A); settings: for Bottom: best-fit value
[9] = biological target: SSTR2 mutants (Homo sapiens, UniProt P30874, Y312A)
[10] = best-fit value, F265A-1 (run 1)
[11] = best-fit value, F265A-2 (run 2)
[12] = best-fit value, F265A-3 (run 3)
[13] = best-fit value, F294A-1 (run 1)
[14] = best-fit value, F294A-2 (run 2)
[15] = best-fit value, F294A-3 (run 3)
[16] = best-fit value, I284A-1 (run 1)
[17] = best-fit value, I284A-2 (run 2)
[18] = best-fit value, I284A-3 (run 3)
[19] = best-fit value, K291A-1 (run 1)
[20] = best-fit value, K291A-2 (run 2)
[21] = best-fit value, K291A-3 (run 3)
[22] = best-fit value, N276A-1 (run 1)
[23] = best-fit value, N276A-2 (run 2)
[24] = best-fit value, N276A-3 (run 3)

Chain of SSTR2 mutants (Homo sapiens, UniProt P30874, K291A) (P30874 whole entry K291A): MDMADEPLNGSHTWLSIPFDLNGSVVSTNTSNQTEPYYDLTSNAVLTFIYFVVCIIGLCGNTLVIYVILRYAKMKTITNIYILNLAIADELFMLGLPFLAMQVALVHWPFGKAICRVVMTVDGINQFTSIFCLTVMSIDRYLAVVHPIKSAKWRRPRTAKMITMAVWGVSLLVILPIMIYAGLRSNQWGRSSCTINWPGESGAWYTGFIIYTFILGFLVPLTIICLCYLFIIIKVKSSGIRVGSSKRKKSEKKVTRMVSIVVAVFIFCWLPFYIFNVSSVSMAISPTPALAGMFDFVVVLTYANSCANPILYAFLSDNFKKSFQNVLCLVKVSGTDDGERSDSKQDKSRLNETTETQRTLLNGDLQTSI
Chain of SSTR2 mutants (Homo sapiens, UniProt P30874, R140A) (P30874 whole entry R140A): as the sequence (P30874 whole entry K291A) above, with R140A, A291K counted along it
Chain of SSTR2 mutants (Homo sapiens, UniProt P30874, Y312A) (P30874 whole entry Y312A): as the sequence (P30874 whole entry K291A) above, with A291K, Y312A counted along it
Chain of SSTR2 mutants (Homo sapiens, UniProt P30874, F265A) (P30874 whole entry F265A): as the sequence (P30874 whole entry K291A) above, with F265A, A291K counted along it
Chain of SSTR2 mutants (Homo sapiens, UniProt P30874, I284A) (P30874 whole entry I284A): as the sequence (P30874 whole entry K291A) above, with I284A, A291K counted along it
Chain of SSTR2 mutants (Homo sapiens, UniProt P30874, P220A) (P30874 whole entry P220A): as the sequence (P30874 whole entry K291A) above, with P220A, A291K counted along it
Chain of SSTR2 mutants (Homo sapiens, UniProt P30874, I130A) (P30874 whole entry I130A): as the sequence (P30874 whole entry K291A) above, with I130A, A291K counted along it
Chain of SSTR2 mutants (Homo sapiens, UniProt P30874, W269A) (P30874 whole entry W269A): as the sequence (P30874 whole entry K291A) above, with W269A, A291K counted along it

N#Cc1cccc(-c2ccc3ncc(-c4cc(F)cc(F)c4)c(N4CCC(N)CC4)c3c2)c1O [paltusotine]
Bottom (best-fit) ([1]; I130A-1 (run 1)): -1.998
Bottom (best-fit) ([1]; I130A-2 (run 2)): 0.9306
Bottom (best-fit) ([1]; I130A-3 (run 3)): -2.793
Bottom (best-fit) ([2]; P220A-1 (run 1)): 0.5179
Bottom (best-fit) ([2]; P220A-2 (run 2)): 2.929
Bottom (best-fit) ([2]; P220A-3 (run 3)): -2.504
Bottom (best-fit) ([3]; R140A-1 (run 1)): -0.6263
Bottom (best-fit) ([3]; R140A-2 (run 2)): -11.29
Bottom (best-fit) ([3]; R140A-3 (run 3)): 0.1772
EC50 [4]: 0.0898 ± 0.00128 µM
Emax ([4]; HEK293): 106 ± 6.25%
Bottom ([4]; I284A-1 (run 1)): -0.6254
Bottom ([4]; I284A-2 (run 2)): 1.24
Bottom ([4]; I284A-3 (run 3)): 0.1294
Fold of WT ([5]; SSTR2 F294(7.35)A): 17.12
Fold of WT ([5]; SSTR2 I284ECL3A): 0.73
Fold of WT ([5]; SSTR2 K291(7.32)A): 0.73
Fold of WT ([5]; SSTR2 N276(6.55)A): 1.19
Fold of WT ([5]; SSTR2 W269(6.48)A): 1.06
LogEC50 (best-fit) ([5]; I130A-1 (run 1)): ~ -2.099
Span (best-fit) ([5]; I130A-1 (run 1)): ~ 8554
Top (best-fit) ([5]; I130A-1 (run 1)): ~ 8552
LogEC50 (best-fit) ([5]; I130A-2 (run 2)): -9.856
Span (best-fit) ([5]; I130A-2 (run 2)): -10.4
Top (best-fit) ([5]; I130A-2 (run 2)): -9.472
LogEC50 (best-fit) ([5]; I130A-3 (run 3)): -9.469
Span (best-fit) ([5]; I130A-3 (run 3)): 2.038
Top (best-fit) ([5]; I130A-3 (run 3)): -0.7545
LogEC50 (best-fit) ([5]; P220A-1 (run 1)): -6.735
Span (best-fit) ([5]; P220A-1 (run 1)): 12.69
Top (best-fit) ([5]; P220A-1 (run 1)): 13.21
LogEC50 (best-fit) ([5]; P220A-2 (run 2)): ~ -2.138
Span (best-fit) ([5]; P220A-2 (run 2)): ~ 22554
Top (best-fit) ([5]; P220A-2 (run 2)): ~ 22557
LogEC50 (best-fit) ([5]; P220A-3 (run 3)): -6.08
Span (best-fit) ([5]; P220A-3 (run 3)): 20.28
Top (best-fit) ([5]; P220A-3 (run 3)): 17.78
LogEC50 (best-fit) ([5]; R140A-1 (run 1)): -8.331
Span (best-fit) ([5]; R140A-1 (run 1)): 51.38
Top (best-fit) ([5]; R140A-1 (run 1)): 50.75
LogEC50 (best-fit) ([5]; R140A-2 (run 2)): -8.178
Span (best-fit) ([5]; R140A-2 (run 2)): 55.99
Top (best-fit) ([5]; R140A-2 (run 2)): 44.7
LogEC50 (best-fit) ([5]; R140A-3 (run 3)): -8.181
Span (best-fit) ([5]; R140A-3 (run 3)): 61.6
Top (best-fit) ([5]; R140A-3 (run 3)): 61.78
LogEC50 (best-fit) ([5]; W269A-1 (run 1)): -6.886
Span (best-fit) ([5]; W269A-1 (run 1)): 28.05
Top (best-fit) ([5]; W269A-1 (run 1)): 27.2
LogEC50 (best-fit) ([5]; W269A-2 (run 2)): -6.322
Span (best-fit) ([5]; W269A-2 (run 2)): 26.76
Top (best-fit) ([5]; W269A-2 (run 2)): 23
LogEC50 (best-fit) ([5]; W269A-3 (run 3)): -6.81
Span (best-fit) ([5]; W269A-3 (run 3)): 22.83
Top (best-fit) ([5]; W269A-3 (run 3)): 22.91
LogEC50 (best-fit) ([5]; Y312A-1 (run 1)): -8.087
Span (best-fit) ([5]; Y312A-1 (run 1)): 42.16
Top (best-fit) ([5]; Y312A-1 (run 1)): 41.34
LogEC50 (best-fit) ([5]; Y312A-2 (run 2)): -7.939
Span (best-fit) ([5]; Y312A-2 (run 2)): 49.41
Top (best-fit) ([5]; Y312A-2 (run 2)): 47.36
LogEC50 (best-fit) ([5]; Y312A-3 (run 3)): -8.193
Span (best-fit) ([5]; Y312A-3 (run 3)): 41.16
Top (best-fit) ([5]; Y312A-3 (run 3)): 41.43
Internalization of microswitch mutants ([5]; alanine substitution of microswitch residues): reduced receptor internalization
EC50 [5, 10]: 11.9 µM
LogEC50 [5, 10]: -4.926
Span [5, 10]: 10.7
Top [5, 10]: 10.68
LogEC50 [5, 11]: -7.219
Span [5, 11]: 0.6462
Top [5, 11]: -7.332
EC50 [5, 12]: 14.7 µM
LogEC50 [5, 12]: -4.832
Span [5, 12]: 19.35
Top [5, 12]: 19.15
EC50 [5, 13]: 2.09 µM
LogEC50 [5, 13]: -5.679
Span [5, 13]: 94.38
Top [5, 13]: 95.1
EC50 [5, 14]: 1.28 µM
LogEC50 [5, 14]: -5.892
Span [5, 14]: 84.17
Top [5, 14]: 81.83
EC50 [5, 15]: 1.57 µM
LogEC50 [5, 15]: -5.803
Span [5, 15]: 87.18
Top [5, 15]: 86.4
EC50 [5, 16]: 0.0712 µM
LogEC50 [5, 16]: -7.148
Span [5, 16]: 95.18
Top [5, 16]: 94.55
EC50 [5, 17]: 0.0841 µM
LogEC50 [5, 17]: -7.075
Span [5, 17]: 103.8
Top [5, 17]: 105.1
EC50 [5, 18]: 0.0826 µM
LogEC50 [5, 18]: -7.083
Span [5, 18]: 102.7
Top [5, 18]: 102.8
EC50 [5, 19]: 0.0357 µM
LogEC50 [5, 19]: -7.448
Span [5, 19]: 68.73
Top [5, 19]: 69.72
EC50 [5, 20]: 0.0839 µM
LogEC50 [5, 20]: -7.076
Span [5, 20]: 87.08
Top [5, 20]: 83.73
EC50 [5, 21]: 0.0302 µM
LogEC50 [5, 21]: -7.52
Span [5, 21]: 76.1
Top [5, 21]: 71.42
EC50 [5, 22]: 0.14 µM
LogEC50 [5, 22]: -6.855
Span [5, 22]: 79.71
Top [5, 22]: 79.77
EC50 [5, 23]: 0.11 µM
LogEC50 [5, 23]: -6.96
Span [5, 23]: 78.62
Top [5, 23]: 78.47
EC50 [5, 24]: 0.1 µM
LogEC50 [5, 24]: -7
Span [5, 24]: 73.41
Top [5, 24]: 70.97
EC50 ([5]; read-out: EC50 (best-fit), I130A-1 (run 1)): ~7970 µM
EC50 ([5]; read-out: EC50 (best-fit), I130A-2 (run 2)): 0.000139 µM
EC50 ([5]; read-out: EC50 (best-fit), I130A-3 (run 3)): 0.00034 µM
EC50 ([5]; read-out: EC50 (best-fit), P220A-1 (run 1)): 0.184 µM
EC50 ([5]; read-out: EC50 (best-fit), P220A-2 (run 2)): ~7280 µM
EC50 ([5]; read-out: EC50 (best-fit), P220A-3 (run 3)): 0.831 µM
EC50 ([5]; read-out: EC50 (best-fit), R140A-1 (run 1)): 0.00467 µM
EC50 ([5]; read-out: EC50 (best-fit), R140A-2 (run 2)): 0.00664 µM
EC50 ([5]; read-out: EC50 (best-fit), R140A-3 (run 3)): 0.00659 µM
EC50 ([5]; read-out: EC50 (best-fit), W269A-1 (run 1)): 0.13 µM
EC50 ([5]; read-out: EC50 (best-fit), W269A-2 (run 2)): 0.476 µM
EC50 ([5]; read-out: EC50 (best-fit), W269A-3 (run 3)): 0.155 µM
EC50 ([5]; read-out: EC50 (best-fit), Y312A-1 (run 1)): 0.00818 µM
EC50 ([5]; read-out: EC50 (best-fit), Y312A-2 (run 2)): 0.0115 µM
EC50 ([5]; read-out: EC50 (best-fit), Y312A-3 (run 3)): 0.00641 µM
EC50 [6]: 0.13 ± 0.00165 µM
Emax ([6]; HEK293): 27.2 ± 2.61%
Bottom (best-fit) ([6]; W269A-1 (run 1)): -0.847
Bottom (best-fit) ([6]; W269A-2 (run 2)): -3.759
Bottom (best-fit) ([6]; W269A-3 (run 3)): 0.08484
Bottom (best-fit) ([7]; F265A-1 (run 1)): -0.01693
Bottom (best-fit) ([7]; F265A-2 (run 2)): -7.978
Bottom (best-fit) ([7]; F265A-3 (run 3)): -0.1955
EC50 [8]: 0.0894 ± 0.00133 µM
Emax ([8]; HEK293): 86.8 ± 5.01%
Bottom ([8]; K291A-1 (run 1)): 0.9895
Bottom ([8]; K291A-2 (run 2)): -3.341
Bottom ([8]; K291A-3 (run 3)): -4.686
Bottom (best-fit) ([9]; Y312A-1 (run 1)): -0.8168
Bottom (best-fit) ([9]; Y312A-2 (run 2)): -2.056
Bottom (best-fit) ([9]; Y312A-3 (run 3)): 0.2687
